Experimental data reported in EP0609032A1, “Aromatic imine compounds, pharmaceutical composition thereof, useful as protein synthesis inhibitors” (NORSK HYDRO A/S, priority 1993, dated 1994).
Entries after “also recorded” stand apart in the source; their conditions may differ.

What was measured:
Type in all cases: cell-based
[1] = system: human NHIK 3025/MEM cervix carcinoma cells; assay: Rate of protein synthesis ([3H]-valine incorporation) in NHIK 3025 cells; conditions: NHIK 3025/MEM cells, 1 hour treatment with [3H]-valine, compared to prior art compound 15
Description: Human cells of the established line NHIK 3025, originating from a cervical carcinoma in situ (Nordbye, K. and Oftebro, R., Exp. Cell Res., 58: 458, (1969)), (Oftebro, R. and Nordbye, K., Exp. Cell Res., 58: 459-460, (1969)) were cultivated in medium E2a (Puck et al., J. Exp. Med., 106: 145-165, (1957)) supplemented with 20% human (prepared at the laboratory) and 10% horse serum (Grand Island Biological Co.).
(§1) The cells are routinely grown as monolayers in tissue culture flasks. The cells were kept in continuous exponential growth by frequent reculturing, i.e. every second or third day.
(§2) During reculturing as well as during experiments the cells were kept in a walk-in incubator at 37°C.
(§3) The rate of protein synthesis was calculated as described previously (Rønning et al., J. Cell Physiol., 107: 47-57, (1981)). Briefly, cellular protein was labeled to saturation during a 2-day preincubation with [¹⁴C]-valine of constant specific radioactivity (0.5 Ci/mol) prior to the experiment. This was achieved by using a high concentration of valine so that the dilution of [¹⁴C]- valine by intracellular valine and by proteolytically generated valine will be negligible (Rønning et al., Exp. Cell Res., 123: 63-72, (1979)), thus keeping the specific radioactivity at a constant level. The rate of protein synthesis was calculated from the incorporation of [³H]-valine of constant specific activity. The incorporated measurements were related to the total of [¹⁴C]-radioactivity in protein at the beginning of the respective measurement periods and expressed as the percentage per hr (Rønning et al., J. Cell. Physiol., 107: 47-57, (1981)).
In Figure 1 the rate of protein synthesis (as % of control rate) is shown in relation to the concentration of imine used in the treatment of human NHIK 3025/MEM cervix carcinoma cells cultivated in vitro. The treatment period was for 1 hour during which the cell culture medium contained [³H]-valine in addition to the test compound. […]

[2] = system: 3T3 cells (derived from mouse embryo); assay: Rate of protein synthesis in 3T3 cells; conditions: Figure 5
Description: Balb 3T3-A cells were isolated by Aaronsen and Todaro (J. Cell Physiol. 72, (1968)) 41-148) and were provided by Dr. T.Ege (Karolinska Institutet, Stockholm) in 1980 and have since been cultivated in MEM medium (Hank's salts) supplemented with 15% newborn bovine serum.
as §1, §2, §3
In Figure 5 the effect of compounds 3 and 7 on the rate of the protein synthesis of 3T3 cells (derived from mouse embryo) is shown.

[3] = system: non-malignant cell line V79 (Chinese hamster lung cells); assay: Rate of protein synthesis in V79 cells; conditions: Figure 4
Description: V79 379-A cells were provided by Dr. Laszlo Révész (Karolinska Institutet, Stockholm) in 1976 and have since been cultivated in MEM medium (Hank's salts) supplemented with 15% newborn bovine serum. These cells are a clone of the line V79, isolated from Chinese hamster normal lung tissue and established in culture by Ford and Yerganian (see J. Natl. Cancer Inst. 21, (1958) 393-425).
as §1, §2, §3
In Figure 4 the effect of two preferred imines according to the invention, compounds 3 and 7 , on the rate of protein synthesis in the non-malignant cell line V79 (Chinese hamster lung cells).

[4] = system: murine B16 melanoma cells; assay: Rate of protein synthesis in B16 melanoma cells; conditions: Figure 3, compared to prior art compound 15
Description: as §3
In Figure 3, the effect of two imine compounds, 3 and 7, according to the invention and the effect of the prior art compound 15 on the protein synthesis of murine B16 melanoma cells is shown.

[5] = system: human pancreatic carcinoma cell line PANC-1; assay: Rate of protein synthesis and cell inactivation ([14C]-radioactivity) in PANC-1 cells; conditions: for cell inactivating effect at concentrations (decline in [¹⁴C]-radioactivity): decrease in [14C]-radioactivity is a sign of cell death
Description: PANC-1 cells were purchased from the American Type Culture Collection (ATCC) in 1990. These cells were derived from a human adenocarcinoma of ductal origin (Lieber et al, Int. J. Cancer 15, (1975) 741-747).
as §1, §2, §3
In Figures 6a) and b) the human pancreatic carcinoma cell line PANC-1, cultivated in the medium MEM (with new born calf serum), was used .
In Figures 7a) and b) the human pancreatic carcinoma cell line PANC-1, cultivated in the medium E2a (with human and horse serum), was used .

Compound | effect on the rate of the protein synthesis [2] | effect on the rate of protein synthesis [3] | effect on the protein synthesis [4] | rate of protein synthesis (as % of control rate) ([1]; Figure 1) | also measured
O=[N+]([O-])c1cccc(C=NCCCCO)c1 [Compound 7, 4-(3-Nitrobenzylidene-Amino)-Butan-1-ol] | strong protein synthesis inhibition | significantly inhibit protein synthesis; also recorded: slightly more effective than compound 3 | much stronger protein synthesis inhibiting effect |  | rate of protein synthesis (as % of control rate) ([1]; Figure 2): inhibited to a greater degree; also recorded: strongest inhibition on protein synthesis
[2H]C1(c2ccccc2)OC[C@@H]([C@H]2OC(=O)C(O)=C2O)O1 (stereo partly drawn) [Compound 15, Sodium 5,6-0-Benzylidene-d1-L-Ascorbate, reference compound] | little effect | little or no inhibition |  |  | protein synthesis inhibiting activity ([5]; Figures 6a/6b, PANC-1 in medium MEM (with new born calf serum)): little protein synthesis inhibiting activity; protein synthesis inhibiting activity ([5]; Figures 7a/7b, PANC-1 in medium E2a (with human and horse serum)): little protein synthesis inhibiting activity
COC(=O)c1ccc(C=NCCCCCCCCCCC(=O)O)cc1 [Compound 4, 11-(4-Carbomethoxy-benzylidene-Amino) -Undecanoic Acid] |  |  |  | inhibited to a greater degree; also recorded: strongest inhibition on protein synthesis | 
[2H]C(=NCCCN(C)C)c1ccccc1 [Compound 14, 1-(Benzylidene-d1-Amino)-3-(Dimethyl-amino)-Propane] |  |  |  |  | cell inactivating effect at concentrations (decline in [¹⁴C]-radioactivity) ([5]; Figure 6b, PANC-1 in medium MEM): above 2 mM; cell inactivating effect at concentrations (decline in [¹⁴C]-radioactivity) ([5]; Figure 7b, PANC-1 in medium E2a): above 2 mM
O=C(O)CCCCCN=Cc1cccc([N+](=O)[O-])c1 [Compound 3, 6-(3-Nitrobenzylidene-Amino)-Hexanoic Acid] | strong protein synthesis inhibition | significantly inhibit protein synthesis | much stronger protein synthesis inhibiting effect | inhibited to a greater degree; also recorded: strongest inhibition on protein synthesis | 
